Active and inactive are the calls of the source. The rule behind the calls is not given here.
What was measured:
Ceutorhynchus obstrictus [1] = assay: Inhibition of Ceutorhynchus obstrictus development in canola pods of plant developed from compound treated seeds assessed as decrease in number of exit holes formed by larvae at 0.28 kg AI per 45.36 kg seeds relative to untreated control; format: functional
Ceutorhynchus obstrictus [2] = assay: Inhibition of Ceutorhynchus obstrictus development in canola pods of plant developed from compound treated seeds assessed as decrease in number of exit holes formed by larvae at 0.38 kg AI per 45.36 kg seeds relative to untreated control; format: functional
Ceutorhynchus obstrictus [3] = assay: Inhibition of Ceutorhynchus obstrictus development in canola pods of plant developed from compound treated seeds assessed as decrease in number of exit holes formed by larvae at 0.38 kg AI per 45.36 kg seeds; format: functional
Ceutorhynchus obstrictus [4] = assay: Inhibition of emergence of new-generation Ceutorhynchus obstrictus adults from soil harboring Brassica napus L. Ryder plant developed from compound treated seeds at 800 g/L FS measured for 5 weeks relative to lindane; format: functional
Ceutorhynchus obstrictus [5] = assay: Inhibition of Ceutorhynchus obstrictus development in canola pods of plant developed from compound treated seeds assessed as decrease in number of exit holes formed by larvae at 0.23 kg AI per 45.36 kg seeds relative to untreated control; format: functional
Ceutorhynchus obstrictus [6] = assay: Effect on Ceutorhynchus obstrictus oviposition in Brassica napus L. Ryder pods of plant developed from compound treated seeds assessed as number of eggs deposited at 800 g/L FS by microscopic analysis; format: functional, organism-based
Ceutorhynchus obstrictus [7] = assay: Inhibition of Ceutorhynchus obstrictus preimaginal development in Brassica napus L. Ryder pods of plant developed from compound treated seeds assessed as decrease in number of exit holes formed per pod by larvae at 800 g/L FS; format: functional, organism-based
Ceutorhynchus obstrictus [8] = assay: Inhibition of Ceutorhynchus obstrictus preimaginal development in Brassica napus L. Ryder pods of plant developed from compound treated seeds assessed as effect on number of first-instar larvae at 800 g/L FS by microscopic analysis; format: functional, organism-based
Ceutorhynchus obstrictus [9] = assay: Inhibition of Ceutorhynchus obstrictus development in canola pods of plant developed from compound treated seeds assessed as decrease in number of exit holes formed by larvae at 0.30 kg AI per 45.36 kg seeds; format: functional
Contarinia nasturtii = assay: Inhibition of Contarinia nasturtii larval development in Brassica oleracea L. var italica plant developed from compound pretreated seeds at 4.5 g AI per 100 g seed measured at 4-5 weeks after planting; format: functional; design: scale not given: the % may be the effect or the level left
Ceutorhynchus obstrictus [10] = assay: Inhibition of Ceutorhynchus obstrictus preimaginal development in Brassica napus L. Ryder pods of plant developed from compound treated seeds assessed as decrease in number of second-instar larvae at 800 g/L FS by microscopic analysis; format: functional, organism-based
Ceutorhynchus obstrictus [11] = assay: Inhibition of Ceutorhynchus obstrictus preimaginal development in Brassica napus L. Ryder pods of plant developed from compound treated seeds assessed as decrease in number of third-instar larvae at 800 g/L FS by microscopic analysis; format: functional, organism-based
Ceutorhynchus obstrictus [12] = assay: Inhibition of Ceutorhynchus obstrictus development in canola pods of plant developed from compound treated seeds assessed as decrease in number of exit holes formed by larvae at 0.45 kg AI per 45.36 kg seeds; format: functional
Ceutorhynchus obstrictus [13] = assay: Inhibition of Ceutorhynchus obstrictus development in canola pods of plant developed from compound treated seeds assessed as decrease in number of exit holes formed by larvae at 0.30 kg AI per 45.36 kg seeds relative to untreated control; format: functional
Ceutorhynchus obstrictus [14] = assay: Inhibition of Ceutorhynchus obstrictus development in canola pods of plant developed from compound treated seeds assessed as decrease in number of exit holes formed by larvae at 0.28 kg AI per 45.36 kg seeds; format: functional
Ceutorhynchus obstrictus [15] = assay: Inhibition of Ceutorhynchus obstrictus development in canola pods of plant developed from compound treated seeds assessed as decrease in number of exit holes formed by larvae at 0.23 kg AI per 45.36 kg seeds; format: functional
Ceutorhynchus obstrictus [16] = assay: Inhibition of Ceutorhynchus obstrictus development in canola pods of plant developed from compound treated seeds assessed as decrease in number of exit holes formed by larvae at 0.45 kg AI per 45.36 kg seeds relative to untreated control; format: functional
Ceutorhynchus obstrictus [17] = assay: Ratio of compound to clothianidin for exit holes formed in Brassica napus L. Ryder pods by Ceutorhynchus obstrictus larvae; format: functional
Ceutorhynchus obstrictus [18] = assay: Ratio of compound to imidacloprid for exit holes formed in Brassica napus L. Ryder pod by […] larvae of Ceutorhynchus obstrictus; format: functional
Ceutorhynchus obstrictus [19] = assay: Effect on Ceutorhynchus obstrictus oviposition in Brassica napus L. Ryder pods of plant developed from compound treated seeds assessed as number of eggs deposited at 1351 g per 100 kg seeds by microscopic analysis; format: functional, organism-based
Ceutorhynchus obstrictus [20] = assay: Inhibition of Ceutorhynchus obstrictus preimaginal development in Brassica napus L. Ryder pods of plant developed from compound treated seeds assessed as effect on number of first-instar larvae at 1351 g per 100 kg seeds by microscopic analysis; format: functional, organism-based
Ceutorhynchus obstrictus [21] = assay: Effect on Ceutorhynchus obstrictus oviposition in Brassica napus L. Ryder pods of plant developed from compound treated seeds assessed as number of eggs deposited at 600 g/L FS by microscopic analysis; format: functional, organism-based
Ceutorhynchus obstrictus [22] = assay: Inhibition of emergence of new-generation Ceutorhynchus obstrictus adults from soil harboring Brassica napus L. Ryder plant developed from compound treated seeds at 600 g/L FS measured for 5 weeks relative to lindane; format: functional
Ceutorhynchus obstrictus [23] = assay: Inhibition of Ceutorhynchus obstrictus preimaginal development in Brassica napus L. Ryder pods of plant developed from compound treated seeds assessed as effect on number of first-instar larvae at 600 g/L FS by microscopic analysis; format: functional, organism-based
Ceutorhynchus obstrictus [24] = assay: Inhibition of Ceutorhynchus obstrictus preimaginal development in Brassica napus L. Ryder pods of plant developed from compound treated seeds assessed as decrease in number of second-instar larvae at 600 g/L FS by microscopic analysis; format: functional, organism-based
Ceutorhynchus obstrictus [25] = assay: Inhibition of Ceutorhynchus obstrictus preimaginal development in Brassica napus L. Ryder pods of plant developed from compound treated seeds assessed as decrease in number of third-instar larvae at 600 g/L FS by microscopic analysis; format: functional, organism-based
Ceutorhynchus obstrictus [26] = assay: Inhibition of Ceutorhynchus obstrictus preimaginal development in Brassica napus L. Ryder pods of plant developed from compound treated seeds assessed as decrease in number of exit holes formed per pod by third-instar larvae at 600 g/L FS; format: functional, organism-based

O=[N+]([O-])/N=C1\NCCN1Cc1ccc(Cl)nc1 [IMIDACLOPRID] was tested, and the “fold change (FC)” value (Ceutorhynchus obstrictus [1]) was 2.2, the “fold change (FC)” value (Ceutorhynchus obstrictus [2]) was 2 and the “inhibition (INH)” value (Ceutorhynchus obstrictus [3]) was 98%. The “inhibition (INH)” value (Ceutorhynchus obstrictus [4]) was 39.4%, the “fold change (FC)” value (Ceutorhynchus obstrictus [5]) was 1.9 and the Activity (Ceutorhynchus obstrictus [6]) was “inactive”. The inhibition (Ceutorhynchus obstrictus [7]) was “Active”, the inhibition (Ceutorhynchus obstrictus [8]) was “inactive” and the “inhibition (INH)” value (Ceutorhynchus obstrictus [9]) was 96%. The Activity (Contarinia nasturtii) was 100%, the inhibition (Ceutorhynchus obstrictus [10]) was “Active” and the inhibition (Ceutorhynchus obstrictus [11]) was “Active”. For the same compound, the “inhibition (INH)” value (Ceutorhynchus obstrictus [12]) was 100%, the “fold change (FC)” value (Ceutorhynchus obstrictus [13]) was 2.1 and the “inhibition (INH)” value (Ceutorhynchus obstrictus [14]) was 100%. The “inhibition (INH)” value (Ceutorhynchus obstrictus [15]) was 88% and the “fold change (FC)” value (Ceutorhynchus obstrictus [16]) was 2.4.

With Cl[C@H]1[C@H](Cl)[C@@H](Cl)[C@@H](Cl)[C@H](Cl)[C@H]1Cl [LINDANE] the “fold change (FC)” value (Ceutorhynchus obstrictus [17]) was 2.5, the “fold change (FC)” value (Ceutorhynchus obstrictus [18]) was 2 and the Activity (Ceutorhynchus obstrictus [19]) was “inactive”. For the same compound, the inhibition (Ceutorhynchus obstrictus [20]) was “inactive”.

With CN/C(=N\[N+](=O)[O-])NCc1cnc(Cl)s1 [CLOTHIANIDINE] the Activity (Ceutorhynchus obstrictus [21]) was “inactive”, the “inhibition (INH)” value (Ceutorhynchus obstrictus [22]) was 52.2% and the inhibition (Ceutorhynchus obstrictus [23]) was “inactive”. The inhibition (Ceutorhynchus obstrictus [24]) was “Active”, the Activity (Contarinia nasturtii) was 100% and the inhibition (Ceutorhynchus obstrictus [25]) was “Active”. The inhibition (Ceutorhynchus obstrictus [26]) was “Active”.

Reference: ChEMBL document CHEMBL3046343, “Responses of the cabbage seedpod weevil, Ceutorhynchus obstrictus (Marsham) (Coleoptera: Curculionidae), to seed treatments of canola (Brassica napus L.) with the neonicotinoid compounds clothianidin and imidacloprid” (2009)
